Broadly, the IC50 is the midpoint of a concentration-inhibition curve. Read a high IC50 as weaker potency.

Here are results for 53 molecules from BindingDB's records for doi:10.7270/Q20863PV (University of Pittsburgh, 2006).

In the test the target is T1, Dual specificity protein phosphatase 1 (Homo sapiens, UniProt P28562).
T1 sequence (P28562 whole entry): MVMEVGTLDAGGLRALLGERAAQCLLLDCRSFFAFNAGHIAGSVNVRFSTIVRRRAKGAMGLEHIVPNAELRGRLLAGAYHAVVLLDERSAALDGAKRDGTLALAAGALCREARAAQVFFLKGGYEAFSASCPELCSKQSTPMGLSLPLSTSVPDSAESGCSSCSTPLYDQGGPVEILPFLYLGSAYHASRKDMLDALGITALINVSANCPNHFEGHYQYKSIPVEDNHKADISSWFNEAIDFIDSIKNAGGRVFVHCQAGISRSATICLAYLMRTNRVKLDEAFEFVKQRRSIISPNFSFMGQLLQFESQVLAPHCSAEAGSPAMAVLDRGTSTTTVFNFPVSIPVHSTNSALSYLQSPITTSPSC
The test is described as follows: MKP-1 phosphatase inhibition under DTT, dose response, biochemical, DTT added, probe assessment (AID 558).
For `[O-]/[N+](=C/c1ccc(F)cc1)c1ccccc1` [(E)-(4-fluorobenzylidene)(phenyl)azane oxide], the IC50 is more than 50 µM.

The molecule `COc1ccc(Br)cc1C=c1sc2nc(-c3ccco3)nn2c1=O` [5-[(5-bromanyl-2-methoxy-phenyl)methylidene]-2-(furan-2-yl)-[1,3]thiazolo[3,2-b][1,2,4]triazol-6-one] showed a concentration for half-maximal inhibition (IC50) of 17.2 µM.

For the molecule `O=C(c1cccs1)c1no[n+]([O-])c1C(=O)c1cccs1` [(5-oxidanidyl-4-thiophen-2-ylcarbonyl-1,2,5-oxadiazol-5-ium-3-yl)-thiophen-2-yl-methanone], the IC50 is 6.96 µM. With `O=C(OC1CCCCC1)c1ccc2c(c1)C1C=CCC1C(C(=O)O)N2` (stereo not drawn) [SMR000019385] the figure was 17.5 µM.

For the molecule `COc1cc(/C=C(/C#N)c2ccc(F)cc2)ccc1OCc1ccc(C(=O)O)o1` [5-({4-[2-cyano-2-(4-fluorophenyl)vinyl]-2-methoxyphenoxy}methyl)-2-furoic acid], the IC50 is more than 50 µM. With `COc1ccc2noc3c2c1C(=O)c1ccccc1-3` [MLS000106874] the figure was 14.3 µM; with `CCn1nc(-c2cccs2)nc2c(=O)n(C)c(=O)nc1-2` [1-ethyl-6-methyl-3-thiophen-2-yl-pyrimido[5,4-e][1,2,4]triazine-5,7-dione], more than 50 µM; with `COCCCn1c(N)c(C(=O)NCCC(C)C)c2nc3ccccc3nc21` [MLS000041744], more than 50 µM. For the molecule `CCOC(=O)c1ccc2c(c1)C1C=CCC1C(C(=O)O)N2` (stereo not drawn) [MLS-0025126.0001], the IC50 is 32.7 µM. This counts as double-digit micromolar. Regarding `Cc1cccc(NC(=O)c2cc(NC(=O)C3CCCCC3C(=O)O)ccc2N2CCCCC2)c1` (stereo not drawn) [2-({[3-{[(3-methylphenyl)amino]carbonyl}-4-(1-piperidinyl)phenyl]amino}carbonyl)cyclohexanecarboxylic acid], the IC50 was more than 50 µM. Regarding `O=C1c2ccccc2-c2onc3ccc(NCCCn4ccnc4)c1c23` [SMR000044769], inhibition was half-maximal at 35.2 µM (IC50).

`Cc1cc(C)n2c(SCC(=O)N3CCN(S(=O)(=O)c4ccc(Cl)cc4)CC3)nnc2n1` [1-[4-(4-chlorophenyl)sulfonyl-1-piperazinyl]-2-[(5,7-dimethyl-[1,2,4]triazolo[4,3-a]pyrimidin-3-yl)thio]ethanone] came in with an IC50 of 49.9 µM. Consider `O=C1C(=C2C(=O)c3ccccc3C2=O)Nc2ccccc21` [MLS000071738], for which the IC50 was more than 50 µM. With `COc1ccc(-c2cc3nc(C4CCN(C(=O)OC(C)(C)C)CC4)c(C(=O)O)cn3n2)cc1` [2-(4-methoxyphenyl)-5-[1-[(2-methylpropan-2-yl)oxy-oxomethyl]-4-piperidinyl]-6-pyrazolo[1,5-a]pyrimidinecarboxylic acid] the figure was 36.3 µM; with `O=C1Nc2ccccc2SC(c2ccccc2)C1O` (stereo not drawn) [3-hydroxy-2-phenyl-2,3-dihydro-1,5-benzothiazepin-4(5H)-one], 35.5 µM; with `Nc1nc2c(s1)CCc1c-2cnn1-c1ccccc1` [MLS000085948], more than 50 µM. Consider `CCCSc1nnc(NC(=O)c2sc3nc(-c4cccs4)ccc3c2N)s1` [3-amino-N-(5-propylsulfanyl-1,3,4-thiadiazol-2-yl)-6-thiophen-2-ylthieno[2,3-b]pyridine-2-carboxamide], for which inhibition was half-maximal at 25.7 µM (IC50). With `COc1ccc(-n2c(NC(=O)c3ccco3)c(C#N)c3nc4ccccc4nc32)cc1` [MLS000079925] the figure was more than 50 µM; with `CCCCn1c(SCC(=O)c2ccc(OC)cc2OC)nc2cc(S(N)(=O)=O)ccc21` [1-butyl-2-[2-(2,4-dimethoxyphenyl)-2-oxidanylidene-ethyl]sulfanyl-benzimidazole-5-sulfonamide], 42.1 µM. Turning to `O=C(Nc1ccc2nc(-c3ccco3)c(-c3ccco3)nc2c1)N1CCCCCC1`, inhibition was half-maximal at 24.1 µM (IC50). For `CC(=O)[C@@H]1[C@@H]2C(=O)N(c3ccc(F)c(Cl)c3)C(=O)[C@@H]2C2c3ccccc3C=CN21` (stereo partly drawn) [MLS000040594], the IC50 was more than 50 µM.

Turning to `N#Cc1c(N2CCCC2)nc(N)c2c(N)nc(N3CCCC3)cc12` [SMR000061605], the IC50 is more than 50 µM. `Cc1nc2cc(-c3cccc(F)c3)nn2c(C)c1CCC(=O)N1CCC2(CC1)OCCO2` [1-(1,4-dioxa-8-azaspiro[4.5]decan-8-yl)-3-[2-(3-fluorophenyl)-5,7-dimethyl-6-pyrazolo[1,5-a]pyrimidinyl]-1-propanone] displayed an IC50 of more than 50 µM.

Take `Cn1ncnc2c(=O)n(C)c(=O)nc1-2`: the IC50 is more than 50 µM. With `[O-]/[N+](=C\c1ccc(OC(F)F)cc1)c1ccccc1` [1-[4-(difluoromethoxy)phenyl]-N-phenylmethanimine oxide] the figure was more than 50 µM; with `CC1=C(/C=C/C(C)=C/C=C/C(C)=C/C(=O)O)C(C)(C)CCC1` [ALL-TRANS-RETINOIC ACID], 48.6 µM; with `O=C(Nc1ccccc1)c1ccc2nc(-c3ccco3)c(-c3ccco3)nc2c1` [2,3-di-2-furyl-N-phenyl-6-quinoxalinecarboxamide], 32 µM.

`N#Cc1c(NC(=O)c2ccc(Br)o2)n(-c2ccccc2)c2nc3ccccc3nc12` [5-bromanyl-N-(3-cyano-1-phenyl-pyrrolo[3,2-b]quinoxalin-2-yl)furan-2-carboxamide] registered an IC50 of more than 50 µM.

Turning to `O=C1C=Cc2ccccc2C1=O` [1,2-dihydronaphthalene-1,2-dione], the IC50 was 22.5 µM. In other words, the double-digit micromolar range.

`CCOc1ccc(-c2cc3nc(C4CCN(C(=O)OC(C)(C)C)CC4)c(C(=O)O)cn3n2)cc1` [2-(4-ethoxyphenyl)-5-[1-[(2-methylpropan-2-yl)oxy-oxomethyl]-4-piperidinyl]-6-pyrazolo[1,5-a]pyrimidinecarboxylic acid] returned an IC50 of 27.7 µM.

For `N#Cc1c(N)sc(=S)c2c1CCN(Cc1ccccc1)C2` [3-Amino-7-benzyl-1-thioxo-5,6,7,8-tetrahydro-1H-thiopyrano[3,4-c]pyridine-4-carbonitrile], the IC50 is more than 50 µM. As for `CCn1nc(-c2ccccc2)nc2c(=O)n(C)c(=O)nc1-2` [1-Ethyl-6-methyl-3-phenyl-1H-pyrimido[5,4-e][1,2,4]triazine-5,7-dione], the IC50 was more than 50 µM. As to `[O-]/[N+](=C\c1ccncc1)c1ccccc1`, the IC50 turned out to be 46.6 µM. As for `Cc1ccc(C)n1-c1cccc(C(=O)O)c1`, the IC50 amounted to 16.9 µM. For the molecule `Cc1cccc(N2CCN(C(=O)Cc3c(C(=O)O)[nH]c4ccc(Cl)cc34)CC2)c1C` [5-chloranyl-3-[2-[4-(2,3-dimethylphenyl)piperazin-1-yl]-2-oxidanylidene-ethyl]-1H-indole-2-carboxylic acid], the IC50 was 46.8 µM. The molecule `CCn1c(SCC(=O)Nc2ccc3c(c2)c2ccccc2n3CC)nnc1-c1ccco1` [MLS000050867] registered an IC50 of 21.1 µM. On to `O=C1C=C(NCc2ccc(Cl)c(Cl)c2)CC1` [3-[(3,4-dichlorobenzyl)amino]cyclopent-2-en-1-one], for which the IC50 is more than 50 µM. In turn, `CCc1ccc(NC(=O)CSc2nc3ccccc3c(=O)n2CCN2CCOCC2)cc1` [MLS000095236] gave an IC50 of more than 50 µM.

In turn, `COC(=O)c1ccccc1NC(=O)CN1C(=O)C2CCCN2c2ncc(Cl)cc21` (stereo not drawn) [MLS000094302] came in with an IC50 of more than 50 µM. Molecule `Cc1ccc(-c2csc(NC(=O)c3ccno3)n2)cc1` [MLS000081820] returned an IC50 of 49.8 µM. This counts as double-digit micromolar. With `CCOc1ccc2noc3c2c1C(=O)c1ccccc1-3` [MLS000106837], the IC50 stood at 30.2 µM. The molecule `Cc1cc(NC(=O)c2ccc(S(=O)(=O)N3CCCC3)cc2)nc2c1c(=O)oc1ccccc12` [MLS000091355] showed an IC50 of 26.1 µM.

Molecule `Nc1c(N2CCCC2)cc(Cl)c2nonc12` [(7-chloro-5-pyrrolidino-benzofurazan-4-yl)amine] gave an IC50 of more than 50 µM. As to `O=C(NC1(O)C(=O)c2ccccc2C1=O)c1ccccc1` [N-(2-hydroxy-1,3-dioxo-2-indenyl)benzamide], the IC50 is more than 50 µM. Regarding `Cc1ccc(/C=C/C2=Cc3c(sc(NC(=O)CSc4nnc(N)[nH]4)c3C#N)C(C)(C)C2)o1` [2-[(5-azanyl-1H-1,2,4-triazol-3-yl)sulfanyl]-N-[3-cyano-7,7-dimethyl-5-[(E)-2-(5-methylfuran-2-yl)ethenyl]-6H-1-benzothiophen-2-yl]ethanamide], the IC50 was 19.8 µM. That is a double-digit micromolar value. In the case of `FC(F)(F)c1ccc(N2CCOCC2)c(Nc2nc3ccccc3n3cnnc23)c1` [MLS000093276], the half-inhibitory concentration (IC50) was more than 50 µM. For `COc1ccc(Cn2c(C)nc3c(c2=O)c2nc4ccccc4nc2n3Cc2ccco2)cc1` [MLS000079944], the half-inhibitory concentration (IC50) came to 22 µM. Molecule `CCOc1cc(/C=C(/C#N)c2ccc(F)cc2)ccc1OCc1ccc(C(=O)O)o1` [5-[[4-[(E)-2-cyano-2-(4-fluorophenyl)ethenyl]-2-ethoxyphenoxy]methyl]furan-2-carboxylic acid] gave an IC50 of 41.8 µM. Against the preceding molecule, the IC50 is about 1.9-fold higher. Consider `CCCCn1c(NC(=O)c2ccccc2)c(C#N)c2nc3ccccc3nc21` [SMR000060333], for which the IC50 turned out to be 32.4 µM. The IC50 values of the last two molecules are within 1.5-fold of each other.

Molecule `CCCCNC(=O)c1c(N)n(CCCOC)c2nc3ccccc3nc12` [2-amino-N-butyl-1-(3-methoxypropyl)-3-pyrrolo[3,2-b]quinoxalinecarboxamide] returned a 50% inhibitory concentration (IC50) of more than 50 µM. `CC(C)Cn1c(N)c(C(=O)COC(=O)c2cc(-c3ccco3)nc3ccccc23)c(=O)n(C)c1=O` [2-(2-furanyl)-4-quinolinecarboxylic acid [2-[4-amino-1-methyl-3-(2-methylpropyl)-2,6-dioxo-5-pyrimidinyl]-2-oxoethyl] ester]: the IC50 stood at 25.5 µM. In turn, `CC(C)(C)N1C(=O)Cc2c1nc(N)c1c(N)nc(N3CCCCC3CO)c(C#N)c21` (stereo not drawn) [5,6-bis(azanyl)-3-tert-butyl-8-[2-(hydroxymethyl)piperidin-1-yl]-2-oxidanylidene-1H-pyrrolo[2,3-c][2,7]naphthyridine-9-carbonitrile] gave an IC50 of more than 50 µM. With `Cc1c(N=c2c(=O)c3ccccc3c2=O)c(=O)n(-c2ccccc2)n1C` [MLS000105950] the figure was more than 50 µM.
